# Assays:
# [1] = system: oil of mustard induced colitis; assay: Oil of mustard induced colitis model; assay type: in vivo, Male CD-1 mice; conditions: 5 mg/kg oral; for % Inh (Macro), % inhibition of colitis: macroscopic score; for % Inh (Micro), % inhibition of colitis: microscopic score
# Description: In the distal colon, the oil of mustard colitis model is characterized by a discontinuous pattern of mucosal epithelial damage, submucosal edema, infiltration of inflammatory cells (including macrophages, neutrophils and lymphocytes) into the mucosa and submucosa, increased wet weight of the colon, shrinkage of the colon length, diarrhea and apparent inflammation (see, Kimball E. S., Palmer J. M., D'Andrea M. R., Hornby P. J. and Wade P. R., Acute colitis induction by oil of mustard results in later development of an IBS-like accelerated upper GI transit in mice, Am. J. Physiol. Gastrointest. Liver Physiol., 2005, 288: G 1266-1273).
# Male CD-1 mice (Charles River Laboratories, Kingston, N.C.) (9-11 weeks old) and fresh oil of mustard (OM) (allyl isothiocyanate, 98% purity, Sigma-Aldrich St. Louis, Mo.) were used.
# The mice (9 per treatment group) were briefly anesthetized with ketamine/xylasine (Sigma, St. Louis, Mo.) and a solution of 0.5% OM in 30% ethanol (50 μL) was administered intracolonically (to a depth of 4 cm) via syringe (equipped with a ball-tipped 22 G needle).
# A test compound was orally administered one day prior to colitis induction for assessing a prophylactic regimen or one day post-induction for assessing a therapeutic regimen. A test compound was orally administered daily thereafter. Two days after OM administration, the last test compound dose was administered.
# (§1) Three days after OM administration, the animals were sacrificed. The colons were resected, examined for signs of inflammation, weighed after removing fecal contents and the length from the aboral end of the cecum to the anus was measured. The fecal contents were examined for signs of diarrhea. The distal colon between the 1st and the 4th centimeter was removed and placed in 10% neutral buffered formalin for histological analysis.
# The macroscopic observations of colon inflammation (a measure of colon damage), colon weight and length and stool consistency and appearance were assigned a score and used to evaluate colitis severity.
# The four observation scores for each colon were combined, whereby a combined score of 0 represents a normal colon and a combined score of 15 represents a maximally affected colon. Statistical analyses were performed in Graphpad Prism 4.0 using ANOVA.
# Histological analyses of tissues consisted of staining paraffin-embedded tissue sections with hematoxylin-eosin dye. The tissues were examined using light microscopy by an investigator who was blinded to the sample groups. […]
# The Macroscopic Score and Microscopic Score results for each treatment group in the prophylactic and therapeutic regimens were each combined into a mean score and expressed as % inhibition of colitis (% Inh). […]
# DSS induced colitis = assay: Dextran sulfate sodium (DSS) induced colitis model; assay type: in vivo, Female Balb/c mice; conditions: for % Inh (Macro), % inhibition of colitis: macroscopic score
# Description: In the distal colon, the DSS colitis model is characterized by a discontinuous pattern of mucosal epithelial damage, infiltration of inflammatory cells (including macrophages, neutrophils and lymphocytes) into the mucosa and submucosa, […] wet weight of the colon, shrinkage of the colon length and diarrhea (see, Blumberg R. S., Saubermann L. J. and Strober W., Animal models of mucosal inflammation and their relation to human inflammatory bowel disease, Current Opinion in Immunology, 1999, Vol. 11: 648-656; Egger B., Bajaj-Elliott M., MacDonald T. T., Inglin R., Eysselein, V. E. and Buchler M. W., Characterization of acute murine dextran sodium sulphate colitis: Cytokine profile and dose dependency, Digestion, 2000, Vol. 62: 240-248; Stevceva L., Pavli P., Husband A. J. and Doe, W. F., The inflammatory infiltrate in the acute stage of the dextran sulphate sodium induced colitis: B cell response differs depending on the percentage of DSS used to induce it, BMC Clinical Pathology, 2001, Vol 1: 3-13; and Diaz-Granados, Howe K., Lu J. and McKay D. M., Dextran sulfate sodium-induced colonic histopathology, but not altered epithelial ion transport, is reduced by inhibition of phosphodiesterase activity, Amer. J. Pathology, 2000, Vol. 156: 2169-2177).
# Female Balb/c mice (Taconic Farms, Germantown, N.Y.) (10-13 weeks old) were provided with a solution of 5% DSS (45 kD molecular weight, ICN chemicals, Newport, Calif.) in tap water ad libitum over a 7-day period. The DSS solution was replenished daily and the amount consumed was measured.
# The mice (10 per treatment group) were orally administered a test compound on the day of colitis induction and then daily thereafter.
# Six days after the initial DSS administration, the last test compound dose was administered.
# as §1, with “Seven” for “Three”, “the initial DSS” for “OM”
# The macroscopic observations of colon inflammation (a measure of colon damage), colon length and stool consistency and appearance were assigned a score and used to evaluate colitis severity.
# The three observation scores for each colon were combined, whereby a combined score of 0 represents a normal colon and a combined score of 11 represents a maximally affected colon. Statistical analyses were performed in Graphpad Prism 4.0 using ANOVA.
# Histological analyses of tissues consisted of staining paraffin-embedded tissue sections with hematoxylin-eosin dye. The tissues were examined using light microscopy by an investigator who was blinded to the sample groups.
# The microscopic observations of epithelial damage, cellular infiltration and damage or alteration of smooth muscle architecture (a measure of muscle damage) were assigned a score and used to evaluate colitis severity.
# The scores for each colon were combined, whereby a combined score of 0 represents a normal colon and a combined score of 9 represents a maximally affected colon. […]
# The Macroscopic Score and Microscopic Score results for each treatment group were each combined into a mean score and expressed as % inhibition of colitis (% Inh). […] ND represents Not Determined.
structure (smiles),measurement,setting,value
"O=C(NCC12CC3CC(CC(C3)C1)C2)c1nn(C2CCCCC2)c2c1CCCCCC2 [Cpd 2, 1-cyclohexyl-4,5,6,7,8,9-hexahydro-1H-cyclooctapyrazole-3-carboxylic acid (adamantan-1-ylmethyl)-amide]","% Inh (Macro), % inhibition of colitis",[1]; prophylactic regimen,42.3 ± 12.6%
same,"% Inh (Micro), % inhibition of colitis",[1]; prophylactic regimen,74.4 ± 3.8%
same,"% Inh (Macro), % inhibition of colitis",[1]; therapeutic regimen,38.7 ± 9.1%
same,"% Inh (Micro), % inhibition of colitis",[1]; therapeutic regimen,66.0 ± 9.8%
same,"% Inh (Macro), % inhibition of colitis",DSS induced colitis; 1 mg/kg oral daily,−4.3 ± 12.9%
same,"% Inh (Macro), % inhibition of colitis",DSS induced colitis; 5 mg/kg oral daily,21.9 ± 15.2%
same,"% Inh (Micro), % inhibition of colitis","DSS induced colitis; 5 mg/kg oral daily, microscopic score",75.7 ± 8.9%
same,"% Inh (Macro), % inhibition of colitis",DSS induced colitis; 10 mg/kg oral daily,50.5 ± 9.0%
same,"% Inh (Macro), % inhibition of colitis",DSS induced colitis; 20 mg/kg oral daily,31.6 ± 8.5%
